Values of other authors, collected in PMC12057046, “Elucidation of short linear motif-based interactions of the MIT and rhodanese domains of the ubiquitin-specific protease 8” (Biology Direct, 2025).

Test system: USP8 MIT domain
Conditions: 187-ELSQRLARLR-196; ref [17], [38]; cited from earlier work
Text: To further elucidate the peptide binding determinants of the interactions with USP8 MIT domain we performed a deep mutational scanning (DMS) analysis of two model peptides: one peptide from melanophilin (MLPH481 − 496: […]) which served as a representative of the MIM1-like motif and the EFCAB12 peptide (EFCAB12_1 − 16: […]), which shares some sequence similarity with the DBP116 − 131 peptide. We designed a library of peptides in which each position of the two parental peptides were mutated to all other amino acids (except cysteine) following a classic saturation mutag ...

## ELSQRLARLR [CHMP1B]
  binding to USP8 MIT: USP8 MIT binding peptides
